The values below come from patent US8202507B2, “Assay for vitamin B12 absorption and method of making labeled vitamin B12” (The Regents of the University of California, priority 2004, dated 2012).

The nature of data set [1]: AMS assay of B12 absorption in a normal human subject after oral ^14C-vitamin B12. It counts as in vivo. To be noted: for total of oral dose recovered in urine and feces: seven days post-dose, cumulative urine and stool; for delay in the appearance of the label in plasma: plasma by AMS. As for the experimental part:
This example describes the use of this labeled B12 and AMS to assay B12 absorption in a normal human subject. A single 1.5 μg dose of the ^14C-vitamin B12 was administered orally and detected by AMS as it appeared in the bloodstream.
The subject was a healthy person with a body mass index (BMI) of 27.5. The subject began complete fecal and urine collection 24 h in advance of the dose and continued complete 24 h collections until Day 7. On the day of dose administration, the subject was fitted with an intravenous catheter in a forearm vein. Blood was drawn into 7 mL tubes containing EDTA. A baseline blood sample was drawn (7 AM) and the dose consumed that corresponded to 2.2 KBq of radioactivity (1.5 μg) was administered in 50 mL of drinking water in a paper cup. The volunteer was allowed to have water ad libitum thereafter, with a light meal taken 2 hr postdose. Blood samples were drawn at frequent intervals for the first 15 hr post-dose and daily thereafter. Meals were controlled for time and content on the dose administration day.
AMS analysis. Aliquots of plasma (30 μL), urine (80 μL) and a stool slurry (80 μL) were dried, combusted to CO2, and reduced to filamentous carbon using known procedures. No other processing preceded the graphization step, thus quantitative recovery was ensured. The ^14C measurements were performed at the Center for Accelerator Mass Spectrometry at Lawrence Livermore National Laboratory. Measurements were conducted to <3% instrument imprecision and, in general, signal acquisition was complete to the desired statistical precision in 3-5 min per sample. The radiation exposure of the subject, due to the ^14C-B12 dose, was equivalent or less than exposure due to 10 hours of intercontinental plane flight.

The conditions of data set [2]: cited from earlier work.

Consider ^14C-cyanocobalamin [^14C-vitamin B12], for which the figures for the “total of oral dose recovered in urine and feces” value in data set [1] and in data set [1] (listed as 14C) were 15.8% and 15.9%, respectively. Besides, the “share of the quantified output accounted for” value in data set [1] (seventy-two hours post-dose, urine and feces) worked out at 99%. In addition, the “delay in the appearance of the label in plasma” value in data set [1] (single 1.5 μg oral dose) is reported as “two to three”; in data set [1] (single 1.5 μg oral dose, listed as 14C from the labeled vitamin B12), “three”. In data set [1] (single 1.5 μg oral dose, plasma, at peak after seven hours), the “peak circulating ^14C-B12 as percent of the administered dose” value is given as “less than three”. Moreover, in data set [1] (single 1.5 μg oral dose, urine, no flushing dose), the “label in the twenty-four hour urine collection” value is reported as 6.8 % of administered dose.
Cyanocobalamin: the solubility in water in data set [2] (25° C.) is recorded as 1.2%. In addition, in data set [2], the “solubility in acetone, chloroform and ether” value is “insoluble”; the “solubility in alcohol and phenol” value is listed as “soluble”.
